Tests used:
physchem = conditions: oil or lipid, thermodynamic from solid
[1] = Solubility of fatty acids in squalene; conditions: for solubility: oil or lipid, thermodynamic from solid
[2] = 4 °C, solubility in squalene, 4° C. (overnight), solution at the fatty acid's top concentration left at 4° C. overnight
[3] = 60 °C, solubility in squalene at 5 mg/mL, mixed with squalene at 60° C.
[4] = 60 °C, solubility in squalene at 10 mg/mL, mixed with squalene at 60° C.
[5] = 60 °C, solubility in squalene at 20 mg/mL, mixed with squalene at 60° C.
[6] = 60 °C, solubility in squalene at 40 mg/mL, mixed with squalene at 60° C.

SMILES | solubility (physchem; [2]) [mg/mL] | solubility (physchem; [3]) [mg/mL] | solubility (physchem; [4]) [mg/mL] | solubility (physchem; [5]) [mg/mL] | solubility (physchem; [6]) [mg/mL] | further results
CCCCCCCCCCCCCCCCCCCC(=O)O [Arachidic Acid (20:0), Arachidic Acid] | < 40 | > 5 | < 10 | < 20 | < 40 | 
CCCCCCCCCCCCCCCCCCCCCC(=O)O [Behenic Acid (22:0), Behenic Acid] | < 40 | < 5 | < 10 | < 20 | < 40 | 
CC/C=C\C/C=C\C/C=C\C/C=C\C/C=C\C/C=C\CCC(=O)O [Docosahexaenoic Acid (22:6), Docosahexaenoic Acid] | > 40 |  |  |  | > 40 | 
CCCCCCCC/C=C/CCCCCCCC(=O)O [Elaidic Acid (18:1)-trans, Elaidic Acid] | < 40 |  |  |  | > 40 | 
CCCCCCCC/C=C\CCCCCCCCCCCC(=O)O [Erucic Acid (22:1), Erucic Acid] |  |  |  |  |  | solubility (physchem; 4 °C): > 40 mg/mL; solubility (physchem; 60 °C): > 40 mg/mL
CCCCCCCCCCCCCCCCCCCCC(=O)O [Heneicosanoic Acid] | < 40 | < 5 | < 10 | < 20 | < 40 | 
CCCCCCCCCCCCCCCCC(=O)O [Heptadecanoic Acid] | < 40 | > 5 | < 10 | < 20 | < 40 | 
CCCCCCCCCCCC(=O)O [Lauric acid (12:0), Lauric acid] |  |  |  |  |  | solubility (physchem; 4 °C): < 40 mg/mL; solubility (physchem; 60 °C): > 40 mg/mL
CCCCCCCCCCCCCCCCCCCCCCCC(=O)O [Lignoceric Acid (24:0), Lignoceric Acid] | < 40 | < 5 | < 10 | < 20 | < 40 | 
CCCCC/C=C\C/C=C\CCCCCCCC(=O)O [Linoleic Acid (18:2), Linoleic Acid] |  |  |  |  |  | solubility (physchem; 4 °C): > 40 mg/mL; solubility (physchem; 60 °C): > 40 mg/mL
CC/C=C\C/C=C\C/C=C\CCCCCCCC(=O)O [Linolenic Acid (18:3), Linolenic Acid] | > 40 |  |  |  | > 40 | 
CCCCCCCCCCCCCC(=O)O [Myristic Acid (14:0), Myristic Acid] | < 40 |  |  | > 20 | < 40 | 
CCCCCCCC/C=C\CCCCCCCCCCCCCC(=O)O [Nervonic Acid (24:1), Nervonic Acid] | < 40 |  |  |  | > 40 | 
CCCCCCCCCCCCCCCCCCC(=O)O [Nonadecanoic Acid] | < 40 | < 5 | < 10 | < 20 | < 40 | 
CCCCCCCC/C=C\CCCCCCCC(=O)O [Oleic Acid (18:1)-cis, Oleic Acid] | > 40 |  |  |  | > 40 | solubility in squalene ([1]; 40 mg/ml): soluble in squalene; solubility in squalene ([1]; 4° C. overnight): remained soluble in squalene
CCCCCC/C=C\CCCCCCCC(=O)O [Palmitoleic Acid (16:1), Palmitoleic Acid] | > 40 |  |  |  | > 40 | 
CCCCCCCCCCCCCCC(=O)O [Pentadecanoic Acid] | < 40 |  |  |  | > 40 | 
CCCCCCCCCCC/C=C\CCCCC(=O)O [Petroselinic Acid (18:1), Petroselinic Acid] |  |  |  |  |  | solubility ([1]; 4 °C): > 40 mg/mL; solubility ([1]; 60 °C): > 40 mg/mL
CCCCCCCCCCCCCCCCCCCCCCC(=O)O [Tricosanoic Acid] | < 40 | < 5 | < 10 | < 20 | < 40 | 
CCCCCCCCCCCCC(=O)O [Tridecanoic Acid] | < 40 |  |  |  | > 40 | 
CCCCCCCCCCC(=O)O [Undecanoic Acid] | > 40 |  |  |  | > 40 | 
